≈ marks a conversion by molar mass, not a printed value.
Assay: Cytotoxicity against […] HII4E cells after 24 hrs by MTT cell viability assay
Type: cell-based

`O=C(N[C@H](CO)[C@H](O)c1ccc([N+](=O)[O-])cc1)C(Cl)Cl` [CHLORAMPHENICOL] gave an IC50 of 143 µg/mL (≈ 443 µM).

From ChEMBL document CHEMBL3352112, “Exploiting the therapeutic potential of 8-β-d-glucopyranosylgenistein: synthesis, antidiabetic activity, and molecular interaction with islet amyloid polypeptide and amyloid β-peptide (1-42)” (J Med Chem, 2014)
